Where two headings read alike, the source gives them in different places.

The target in assay [1] is human cannabinoid receptor 1 (hCB1R) (Homo sapiens, UniProt P21554). In words: Binding to human cannabinoid receptor 1 (hCB1R), [3H]-SR141716A displacement. Here is the method: Binding to Human Cannabinoid Receptor 1 (hCB1R):
Test compounds: The compounds (3 μl, 10 mM, 100% DMSO), pipetted into 96-well PP microtiter plates, were diluted with 27 μl of 100% DMSO (dimethyl sulfoxide). Proceeding from this solution, further 3-fold dilution steps were undertaken by transferring […] in each case to a new PP microtiter plate and adding a further 20 μl of 100% DMSO. In each case 6 μl of these solutions were transferred into new 96-well PP microtiter plates and made up with 144 μl of assay buffer. The end concentrations ranged from 10 μM to 0.005 μM.
Negative control: AM 251, dissolved in assay buffer with 1% DMSO, was added to the dilution series in the microtiter plates as a control. The end concentration was 1 μM.
Blank control: assay buffer with 1% DMSO was added to the dilution series of the microtiter plates as a blank control.
Summary of the Assay Parameters:
High control: ^3H binding without addition of the compound
Low control: ^3H binding in the presence of 1 μM AM 251
The values were calculated using the corrected raw data.
The values reported were obtained as average values of a double determination. The IC50 values were calculated from the measurements with the program Xlfit, formula 205. Ki values were obtained from the IC50 and Kd values utilizing the Cheng-Prusoff equation: […]
Literature: Cheng, Y.-C., and Prusoff, W. H. (1973) Biochem. Pharmacol 22, 3099-3108

The target of assay [2] is T1, human androgen receptor (hAR) (Homo sapiens, UniProt P10275, T878A).
T1 construct: for the preparation of cytosolic receptor protein, the androgen-sensitive human prostate adenocarcinoma cell line LNCaP was used; endogenous in cells; host or cells: LNCaP (human prostate adenocarcinoma) cell cytosol fraction
T1 sequence (P10275 1-920 T878A): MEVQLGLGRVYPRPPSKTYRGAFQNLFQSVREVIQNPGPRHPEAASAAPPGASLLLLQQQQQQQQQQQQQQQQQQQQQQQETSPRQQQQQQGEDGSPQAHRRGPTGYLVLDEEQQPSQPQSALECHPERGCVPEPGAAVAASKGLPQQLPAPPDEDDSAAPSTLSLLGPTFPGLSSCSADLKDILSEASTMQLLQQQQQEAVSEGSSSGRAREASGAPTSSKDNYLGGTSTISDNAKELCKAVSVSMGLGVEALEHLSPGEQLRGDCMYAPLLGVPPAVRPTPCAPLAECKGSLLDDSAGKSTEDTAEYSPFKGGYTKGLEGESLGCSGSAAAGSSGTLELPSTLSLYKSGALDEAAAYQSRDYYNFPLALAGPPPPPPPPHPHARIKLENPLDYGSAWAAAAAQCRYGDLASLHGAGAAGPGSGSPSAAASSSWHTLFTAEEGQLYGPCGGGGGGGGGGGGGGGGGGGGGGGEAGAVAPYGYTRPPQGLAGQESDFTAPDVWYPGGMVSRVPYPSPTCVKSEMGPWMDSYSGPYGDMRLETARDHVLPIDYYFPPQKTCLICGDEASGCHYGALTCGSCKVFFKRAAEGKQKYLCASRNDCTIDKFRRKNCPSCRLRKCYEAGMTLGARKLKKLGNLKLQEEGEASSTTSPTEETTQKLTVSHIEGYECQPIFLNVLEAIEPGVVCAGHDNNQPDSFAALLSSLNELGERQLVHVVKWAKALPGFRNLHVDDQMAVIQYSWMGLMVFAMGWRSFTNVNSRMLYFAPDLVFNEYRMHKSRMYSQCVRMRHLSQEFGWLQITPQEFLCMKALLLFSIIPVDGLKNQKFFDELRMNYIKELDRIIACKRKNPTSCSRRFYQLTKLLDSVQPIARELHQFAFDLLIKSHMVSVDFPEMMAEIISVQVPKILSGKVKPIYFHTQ
In words: Binding assay with human androgen receptor, [3H]methyltrienolone, LNCaP cytosol. As to conditions: for inhibition at 10 µM / inhibition at 1 µM: inhibition of [3H]methyltrienolone binding; for inhibition at 10 µM: compound 10 μM; for inhibition at 1 µM: compound 1 μM. How it is done:
Binding Assay with Human Androgen Receptor:
The binding assays on the androgen receptor were conducted according to the method of D. T. Zava et al. (1979) (“Androgen Receptor Assay with [^3H]Methyltrienolone (R1881) in the Presence of Progesterone Receptor”, Endocrinology, 104, 1007-1012). The radioactive ligand used for the binding measurement was [^3H]methyltrienolone and the reference substance was the same compound in unmarked (=nonradioactive) form. To determine the unspecific proportion of binding, 1 μM mibolerone was used. In a departure from the method cited, for the preparation of cytosolic receptor protein, the androgen-sensitive human prostate adenocarcinoma cell line LNCaP was used. For the analysis, aliquots of a cell cytosol fraction (proceeding from 10^6 cells per analysis point) were incubated, in a buffer in the presence or absence of test substance, with 0.5 nM [^3H]methyltrienolone at 4° C. for 24 hours (25 mM HEPES/Tris, 1 mM EDTA, 10 mM Na2MoO4, 2 mM DTT, 10% glycerol; pH 7.4). The samples were then mixed with 400 μl each of an activated carbon suspension and the mixtures were centrifuged (10 minutes, 8000×g). Supernatants were withdrawn and mixed with 5 ml each of scintillation cocktail, and the radioactivity of the samples was measured in a scintillation counter. Specific ligand binding to the receptors was calculated as the difference between total binding and the unspecific binding in the presence of an excess of nonmarked ligand. End results were represented as percent specific binding compared to the binding of control substance.
The strength of the binding to the human androgen receptor is expressed as percent inhibition of the binding of [^3H]methyltrienolone to the human androgen receptor. The concentration of the compounds examined is 1 μM or 10 μM. The greater the numerical value of “percent inhibition at 1 or 10 μM”, the stronger is the binding of the test substance to the human androgen receptor. Alternatively, the Ki value is reported; the greater this value compared to the Ki value based on the binding to the hCB1R, the lower is the binding to the hAR.

The mark [3] stands for this setting: CHO-K1/cannabinoid CB1 protein, 0.5 nM [3H]-SR141716A, Cheng-Prusoff, read-out: hCB1R, binding Ki.

Sequence of human cannabinoid receptor 1 (hCB1R) (P21554 whole entry): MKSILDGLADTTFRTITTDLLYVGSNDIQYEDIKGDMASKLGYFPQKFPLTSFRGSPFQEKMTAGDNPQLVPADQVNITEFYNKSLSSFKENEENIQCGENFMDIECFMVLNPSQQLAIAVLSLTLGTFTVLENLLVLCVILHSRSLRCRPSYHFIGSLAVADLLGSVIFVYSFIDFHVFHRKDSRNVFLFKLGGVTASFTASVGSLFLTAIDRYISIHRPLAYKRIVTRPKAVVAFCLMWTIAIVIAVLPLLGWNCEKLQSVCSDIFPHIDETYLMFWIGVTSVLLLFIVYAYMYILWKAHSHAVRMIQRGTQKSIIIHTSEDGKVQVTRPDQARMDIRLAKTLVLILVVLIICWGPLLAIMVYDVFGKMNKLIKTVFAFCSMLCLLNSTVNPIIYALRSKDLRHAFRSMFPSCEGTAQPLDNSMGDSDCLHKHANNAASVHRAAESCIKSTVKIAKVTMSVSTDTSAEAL

Regarding `CC1(C)C(=O)N(c2ccc(C#N)c(C(F)(F)F)c2)C(=O)N1Cc1ccc(C(F)(F)F)cc1` [4-[4,4-dimethyl-2,5-dioxo-3-(4-trifluoromethylbenzyl)-imidazolidin-1-yl]-2-trifluoromethylbenzonitrile, reference compound], the figures for the Ki in assay [1] and in assay [2] (read-out: Ki value based on binding to the human androgen receptor) were 76 nM and 96 nM, respectively.

Broadly, the inhibition is the relative decrease from the control value, in per cent. Turning to `CC1(C)C(=O)N(c2ccc(C#N)c(C(F)(F)F)c2)C(=O)N1Cc1cc(C(F)(F)F)cc(C(F)(F)F)c1` [Example 1, 4-[3-(3,5-bis(trifluoromethyl)benzyl)-4,4-dimethyl-2,5-dioxoimidazolidin-1-yl]-2-trifluoromethylbenzonitrile], in assay [1], the Ki was determined as 4 nM. Also, in assay [2], the inhibition at 10 µM was determined as 26%.

For `CC1(C)C(=O)N(c2ccc(C#N)c(C(F)(F)F)c2)C(=O)N1Cc1ccc(OC(F)(F)F)cc1` [Example 2, 4-[4,4-dimethyl-2,5-dioxo-3-(4-trifluoromethoxybenzyl)imidazolidin-1-yl]-2-trifluoromethylbenzonitrile], the Ki in assay [1] (setting [3]) turned out to be 200 nM. Moreover, the inhibition at 1 µM in assay [2] amounted to 20%.

With `CC1(C)C(=O)N(c2ccc(C#N)c(C(F)(F)F)c2)C(=O)N1Cc1cccc(C(F)(F)F)c1` [Example 3, 4-[4,4-dimethyl-2,5-dioxo-3-(3-trifluoromethylbenzyl)imidazolidin-1-yl]-2-trifluoromethylbenzonitrile], the Ki in assay [1] (setting [3]) was determined as 127 nM. Further, at 1 µM the inhibition in assay [2] was 54%.

`CC1(C)C(=O)N(c2ccc(C#N)c(C(F)(F)F)c2)C(=O)N1Cc1ccc(Cl)nc1` [Example 5, 4-[3-(6-chloropyridin-3-ylmethyl)-4,4-dimethyl-2,5-dioxoimidazolidin-1-yl]-2-trifluoromethylbenzonitrile] returned a Ki in assay [1] of 25 nM. Also, in assay [2], 1 µM produced 86% inhibition.

On to `CC1(C)C(=O)N(c2ccc(C#N)c(C(F)(F)F)c2)C(=O)N1Cc1ccc(C(F)(F)F)nc1` [Example 6, 4-[4,4-dimethyl-2,5-dioxo-3-(6-trifluoromethylpyridin-3-ylmethyl)-imidazolidin-1-yl]-2-trifluoromethylbenzonitrile], for which, in assay [1], the Ki came to 11 nM. The molecule further returned an inhibition at 1 µM in assay [2] of 84%.

`CC1(C)C(=O)N(c2ccc(F)c(C(F)(F)F)c2)C(=O)N1Cc1ccc(C(F)(F)F)nc1` [Example 7, 3-(4-fluoro-3-trifluoromethylphenyl)-5,5-dimethyl-1-(6-trifluoromethyl-pyridin-3-ylmethyl)imidazolidine-2,4-dione]: the Ki in assay [1] (setting [3]) amounted to 205 nM. In assay [2], this molecule gave an inhibition at 1 µM of 47%.

As for `CC1(C)C(=O)N(c2ccc(Cl)c(C(F)(F)F)c2)C(=O)N1Cc1ccc(C(F)(F)F)nc1` [Example 8, 3-(4-chloro-3-trifluoromethylphenyl)-5,5-dimethyl-1-(6-trifluoromethyl-pyridin-3-ylmethyl)imidazolidine-2,4-dione], in assay [1] (setting [3]), the Ki amounted to 227 nM. Besides, in assay [2], the inhibition at 1 µM came to 53%.

As to `CC1(C)C(=O)N(c2ccc(F)c(C(F)(F)F)c2)C(=O)N1Cc1cc(C(F)(F)F)cc(C(F)(F)F)c1` [Example 9, 1-(3,5-bis(trifluoromethyl)benzyl)-3-(4-fluoro-3-trifluoromethylphenyl)-5,5-dimethylimidazolidine-2,4-dione], in assay [1] (setting [3]), the Ki was 295 nM. For the same molecule, the inhibition at 10 µM in assay [2] was determined as 3%.

`CC1(C)C(=O)N(c2ccc(Cl)c(C(F)(F)F)c2)C(=O)N1Cc1cc(C(F)(F)F)cc(C(F)(F)F)c1` [Example 10, 1-(3,5-bis(trifluoromethyl)benzyl)-3-(4-chloro-3-trifluoromethylphenyl)-5,5-dimethylimidazolidine-2,4-dione] showed a Ki in assay [1] of 81 nM. The molecule also showed an inhibition at 1 µM in assay [2] of 3%.

As for `CC1(C)C(=O)N(c2ccc(C#N)c(C(F)(F)F)c2)C(=O)N1Cc1cccc(S(F)(F)(F)(F)F)c1` [Example 11, 4-[4,4-dimethyl-2,5-dioxo-3-(3-pentafluorosulfanylbenzyl)imidazolidin-1-yl]-2-trifluoromethylbenzonitrile], the Ki in assay [1] came to 17 nM. In assay [2], this molecule had an inhibition at 1 µM of 39%.

With `CC1(C)C(=O)N(c2ccc(C#N)c(C(F)(F)F)c2)C(=O)N1Cc1ccc(OCc2ccccc2)c(OCc2ccccc2)c1` [Example 33, 4-[3-(3,4-bis(benzyloxy)benzyl)-4,4-dimethyl-2,5-dioxoimidazolidin-1-yl]-2-trifluoromethylbenzonitrile], the Ki in assay [1] was 26 nM; in assay [2] (reported instead of % inhibition in table 5, read-out: hAR, Ki), more than 1000 nM.

In turn, `CC1(C)C(=O)N(c2ccc(C#N)c(C(F)(F)F)c2)C(=O)N1Cc1ccccc1Oc1ccccc1` [Example 34, 4-[4,4-dimethyl-2,5-dioxo-3-(2-phenoxybenzyl)imidazolidin-1-yl]-2-trifluoromethylbenzonitrile] registered a Ki in assay [1] of 6 nM. The molecule further displayed an inhibition at 1 µM in assay [2] of 30%.

On to `CC1(C)C(=O)N(c2ccc(Cl)c(C(F)(F)F)c2)C(=O)N1Cc1ccc(OCc2ccccc2)c(OCc2ccccc2)c1` [Example 37], for which the Ki in assay [1] (setting [3]) was found to be 219 nM. Moreover, the inhibition at 10 µM in assay [2] amounted to 4%.

Turning to `CC1(C)C(=O)N(c2ccc(F)c(C(F)(F)F)c2)C(=O)N1Cc1ccccc1Oc1ccccc1` [Example 44, 3-(4-fluoro-3-trifluoromethylphenyl)-5,5-dimethyl-1-(2-phenoxybenzyl)imidazolidine-2,4-dione], in assay [1] (setting [3]), the Ki turned out to be 100 nM. The same molecule returned an inhibition at 10 µM in assay [2] of 15%.

Regarding `CC1(C)C(=O)N(c2ccc(F)c(C(F)(F)F)c2)C(=O)N1Cc1ccc(F)cc1NS(N)(=O)=O` [Example 52, N-{5-fluoro-2-[3-(4-fluoro-3-trifluoromethylphenyl)-5,5-dimethyl-2,4-dioxoimidazolidin-1-ylmethyl]phenyl}sulfamide], the Ki in assay [1] is 41 nM. In assay [2], this molecule returned an inhibition at 1 µM of 52%.

The values are drawn from patent US20110178134A1, “Novel phenyl-substituted imidazolidines, process for preparation thereof, medicaments comprising said compounds and use thereof” (SANOFI-AVENTIS, priority 2008, published 2011).
